Data: patent publication US8314112B2 (Novartis AG, priority 2008, dated 2012)

These molecules were tested against T1, human ALK5 (kinase domain, ALK5 T204D) (Homo sapiens, UniProt P36897, T204D) (assay: ALK5 kinase assay ([33P] phosphate incorporation into casein)). Conditions: casein substrate, 1 μM unlabelled ATP.
T1 construct: The kinase domain of human ALK5 (amino acids 200-503); made in house; host or cells: insect cells (baculovirus)
T1 sequence (P36897 200-503 T204D): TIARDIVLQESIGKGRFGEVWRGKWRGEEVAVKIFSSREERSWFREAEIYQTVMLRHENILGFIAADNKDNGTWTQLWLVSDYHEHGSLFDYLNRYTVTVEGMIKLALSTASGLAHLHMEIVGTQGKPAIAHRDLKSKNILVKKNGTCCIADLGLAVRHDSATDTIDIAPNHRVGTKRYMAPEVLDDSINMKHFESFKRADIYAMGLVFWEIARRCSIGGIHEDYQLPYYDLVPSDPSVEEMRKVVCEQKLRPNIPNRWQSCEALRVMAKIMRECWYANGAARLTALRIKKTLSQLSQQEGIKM
Type: biochemical
Procedure, shortened: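 His-tagged human ALK5 T204D kinase domain (aa 200-503, constitutively active, baculovirus/insect-cell expressed), 50 ng/well, preincubated 10 min with compound and dephosphorylated casein (200 μg/well) in Tris pH 7.4/MgCl2/MnCl2. Reaction started with 1 μM ATP plus [33P]ATP, 50 min at room temperature, EDTA-stopped; casein-bound 33P counted by scintillation after filter capture.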
An IC50 of 5.3 nM was found for Cc1cccc(-c2cc(-c3cncc(-c4cccc(CNCCO)c4)c3)c3cc[nH]c3n2)n1 [Example 132, 2-(3-{5-[6-(6-Methyl-pyridin-2-yl)-1H-pyrrolo[2,3-b]pyridin-4-yl]-pyridin-3-yl}-benzylamino)-ethanol] in this work. An IC50 of 7 nM was found for COC(=O)CNCc1ccc(-c2cncc(-c3cc(-c4cccc(C)n4)nc4[nH]ccc34)c2)cc1 [Example 133, (4-{5-[6-(6-methyl-pyridin-2-yl)-1H-pyrrolo[2,3-b]pyridin-4-yl]-pyridin-3-yl}-benzylamino)-acetic acid methyl ester] in this work. An IC50 of 39 nM was found for Cc1cccc(-c2cc(-c3cncc(-c4ccc(CN5CCC(F)(F)C5)cc4)c3)c3cc[nH]c3n2)n1 [Example 134, 4-{5-[4-(3,3-Difluoro-pyrrolidin-1-ylmethyl)-phenyl]-pyridin-3-yl}-6-(6-methyl-pyridin-2-yl)-1H-pyrrolo[2,3-b]pyridine] in this work. An IC50 of 3.3 nM was found for Cc1cccc(-c2cc(-c3cncc(-c4ccc(CNCCO)cc4)c3)c3cc[nH]c3n2)n1 [Example 135, 2-(4-{5-[6-(6-Methyl-pyridin-2-yl)-1H-pyrrolo[2,3-b]pyridin-4-yl]-pyridin-3-yl}-benzylamino)-ethanol] in this work. An IC50 of 10 nM was found for Cc1cccc(-c2cc(-c3cncc(-c4ccc(CNCC(=O)O)cc4)c3)c3cc[nH]c3n2)n1 [Example 136, (4-{5-[6-(6-Methyl-pyridin-2-yl)-1H-pyrrolo[2,3-b]pyridin-4-yl]-pyridin-3-yl}-benzylamino)-acetic acid] in this work. An IC50 of 9 nM was found for Cc1cccc(-c2cc(-c3cncc(-c4ccc(CN5CCN(C(C)C)CC5)cc4)c3)c3cc[nH]c3n2)n1 [Example 137, 4-{5-[4-(4-Isopropyl-piperazin-1-ylmethyl)-phenyl]-pyridin-3-yl}-6-(6-methyl-pyridin-2-yl)-1H-pyrrolo[2,3-b]pyridine] in this work. An IC50 of 11 nM was found for Cc1cccc(-c2cc(-c3cncc(-c4ccc(CN5CC(O)C5)cc4)c3)c3cc[nH]c3n2)n1 [Example 138, 1-(4-{5-[6-(6-Methyl-pyridin-2-yl)-1H-pyrrolo[2,3-b]pyridin-4-yl]-pyridin-3-yl}-benzyl)-azetidin-3-ol] in this work. An IC50 of 9 nM was found for Cc1cccc(-c2cc(-c3cncc(-c4ccc(CNCCCO)cc4)c3)c3cc[nH]c3n2)n1 [Example 139, 3-(4-{5-[6-(6-Methyl-pyridin-2-yl)-1H-pyrrolo[2,3-b]pyridin-4-yl]-pyridin-3-yl}-benzylamino)-propan-1-ol] in this work. An IC50 of 6.2 nM was found for Cc1cccc(-c2cc(-c3cncc(-c4ccc(CNCCC(=O)O)cc4)c3)c3cc[nH]c3n2)n1 [Example 140, 3-(4-{5-[6-(6-Methyl-pyridin-2-yl)-1H-pyrrolo[2,3-b]pyridin-4-yl]-pyridin-3-yl}-benzylamino)-propionic acid] in this work. An IC50 of 17 nM was found for COC(=O)CN(C)Cc1cccc(-c2cncc(-c3cc(-c4cccc(C)n4)nc4[nH]ccc34)c2)c1 [Example 141, [Methyl-(3-{5-[6-(6-methyl-pyridin-2-yl)-1H-pyrrolo[2,3-b]pyridin-4-yl]-pyridin-3-yl}-benzyl)-amino]-acetic acid methyl ester] in this work. An IC50 of 10 nM was found for Cc1cccc(-c2cc(-c3cncc(-c4cccc(CN(C)CCO)c4)c3)c3cc[nH]c3n2)n1 [Example 142, 2-[Methyl-(3-{5-[6-(6-methyl-pyridin-2-yl)-1H-pyrrolo[2,3-b]pyridin-4-yl]-pyridin-3-yl}-benzyl)-amino]-ethanol] in this work. An IC50 of 30 nM was found for Cc1cccc(-c2cc(-c3cncc(-c4cccc(CN(C)CC(=O)O)c4)c3)c3cc[nH]c3n2)n1 [Example 143, [Methyl-(3-{5-[6-(6-methyl-pyridin-2-yl)-1H-pyrrolo[2,3-b]pyridin-4-yl]-pyridin-3-yl}-benzyl)-amino]-acetic acid] in this work. An IC50 of 19 nM was found for Cc1cccc(-c2nc(-c3cncc(-c4cccc(CN(C)CCO)c4)c3)c3cc[nH]c3n2)n1 [Example 144, 2-[Methyl-(3-{5-[2-(6-methyl-pyridin-2-yl)-7H-pyrrolo[2,3-d]pyrimidin-4-yl]-pyridin-3-yl}-benzyl)-amino]-ethanol] in this work. An IC50 of 26 nM was found for Cc1cccc(-c2nc(-c3cncc(-c4cccc(CN(C)CC(=O)O)c4)c3)c3cc[nH]c3n2)n1 [Example 145] in this work. An IC50 of 27 nM was found for COC(=O)CNCc1cccc(-c2cncc(-c3nc(-c4cccc(C)n4)nc4[nH]ccc34)c2)c1 [Example 146, (3-{5-[2-(6-Methyl-pyridin-2-yl)-7H-pyrrolo[2,3-d]pyrimidin-4-yl]-pyridin-3-yl}-benzylamino)-acetic acid methyl ester] in this work. An IC50 of 10 nM was found for Cc1cccc(-c2nc(-c3cncc(-c4cccc(CNCCO)c4)c3)c3cc[nH]c3n2)n1 [Example 147, 2-(3-{5-[2-(6-Methyl-pyridin-2-yl)-7H-pyrrolo[2,3-d]pyrimidin-4-yl]-pyridin-3-yl}-benzylamino)-ethanol] in this work. An IC50 of 17 nM was found for Cc1cccc(-c2nc(-c3cncc(-c4cccc(CNCC(=O)O)c4)c3)c3cc[nH]c3n2)n1 [Example 148, (3-{5-[2-(6-Methyl-pyridin-2-yl)-7H-pyrrolo[2,3-d]pyrimidin-4-yl]-pyridin-3-yl}-benzylamino)-acetic acid] in this work. An IC50 of 8 nM was found for COC(=O)CNCc1ccc(-c2cncc(-c3nc(-c4cccc(C)n4)nc4[nH]ccc34)c2)cc1 [Example 149, (4-{5-[2-(6-Methyl-pyridin-2-yl)-7H-pyrrolo[2,3-d]pyrimidin-4-yl]-pyridin-3-yl}-benzylamino)-acetic acid methyl ester] in this work. An IC50 of 17 nM was found for Cc1cccc(-c2nc(-c3cncc(-c4ccc(CNCC(=O)O)cc4)c3)c3cc[nH]c3n2)n1 [Example 150, (4-{5-[2-(6-Methyl-pyridin-2-yl)-7H-pyrrolo[2,3-d]pyrimidin-4-yl]-pyridin-3-yl}-benzylamino)-acetic acid] in this work. An IC50 of 5.8 nM was found for Cc1cccc(-c2nc(-c3cncc(-c4ccc(CNCCO)cc4)c3)c3cc[nH]c3n2)n1 [Example 151] in this work. An IC50 of 10 nM was found for COC(=O)CN(C)Cc1ccc(-c2cncc(-c3cc(-c4cccc(C)n4)nc4[nH]ccc34)c2)cc1 [Example 152, [Methyl-(4-{5-[6-(6-methyl-pyridin-2-yl)-1H-pyrrolo[2,3-b]pyridin-4-yl]-pyridin-3-yl}-benzyl)-amino]-acetic acid methyl ester] in this work. An IC50 of 11 nM was found for Cc1cccc(-c2cc(-c3cncc(-c4ccc(CN(C)CCO)cc4)c3)c3cc[nH]c3n2)n1 [Example 153, 2-[Methyl-(4-{5-[6-(6-methyl-pyridin-2-yl)-1H-pyrrolo[2,3-b]pyridin-4-yl]-pyridin-3-yl}-benzyl)-amino]-ethanol] in this work. An IC50 of 6.4 nM was found for Cc1cccc(-c2cc(-c3cncc(-c4ccc(CN(C)CC(=O)O)cc4)c3)c3cc[nH]c3n2)n1 [Example 154, [Methyl-(4-{5-[6-(6-methyl-pyridin-2-yl)-1H-pyrrolo[2,3-b]pyridin-4-yl]-pyridin-3-yl}-benzyl)-amino]-acetic acid acid] in this work. An IC50 of 48 nM was found for Cc1cccc(-c2cc(-c3cncc(C#CCN4CCC(F)(F)C4)c3)c3cc[nH]c3n2)n1 [Example 155, 4-{5-[3-(3,3-Difluoro-pyrrolidin-1-yl)-prop-1-ynyl]-pyridin-3-yl}-6-(6-methyl-pyridin-2-yl)-1H-pyrrolo[2,3-b]pyridine] in this work. An IC50 of 11 nM was found for Cc1cccc(-c2cc(-c3cncc(-c4cccc(CC(=O)O)c4)c3)c3cc[nH]c3n2)n1 [Example 156, (3-{5-[6-(6-Methyl-pyridin-2-yl)-1H-pyrrolo[2,3-b]pyridin-4-yl]-pyridin-3-yl}-phenyl)-acetic acid] in this work. An IC50 of 8 nM was found for Cc1cccc(-c2cc(-c3cncc(-c4ccc(CC(=O)O)cc4)c3)c3cc[nH]c3n2)n1 [Example 157, (4-{5-[6-(6-Methyl-pyridin-2-yl)-1H-pyrrolo[2,3-b]pyridin-4-yl]-pyridin-3-yl}-phenyl)-acetic acid] in this work. An IC50 of 27 nM was found for Cc1cccc(-c2cc(-c3cncc(C#CCN4CCOCC4)c3)c3cc[nH]c3n2)n1 [Example 158, 6-(6-Methyl-pyridin-2-yl)-4-[5-(3-morpholin-4-yl-prop-1-ynyl)-pyridin-3-yl]-1H-pyrrolo[2,3-b]pyridine] in this work. An IC50 of 6.5 nM was found for Cc1cccc(-c2cc(-c3cncc(-c4ccc(CCC(=O)O)cc4)c3)c3cc[nH]c3n2)n1 [Example 159, 3-(4-{5-[6-(6-Methyl-pyridin-2-yl)-1H-pyrrolo[2,3-b]pyridin-4-yl]-pyridin-3-yl}-phenyl)-propionic acid] in this work. An IC50 of 5.9 nM was found for Cc1cccc(-c2cc(-c3cncc(-c4ccc(C(C)(C)N(C)C)cc4)c3)c3cc[nH]c3n2)n1 [Example 160, Dimethyl-[1-methyl-1-(4-{5-[6-(6-methyl-pyridin-2-yl)-1H-pyrrolo[2,3-b]pyridin-4-yl]-pyridin-3-yl}-phenyl)-ethyl]-amine] in this work. An IC50 of 19 nM was found for Cc1cccc(-c2cc(-c3cncc(-c4ccc(C(C)(C)N5CCOCC5)cc4)c3)c3cc[nH]c3n2)n1 [Example 161, 4-{5-[4-(1-Methyl-1-morpholin-4-yl-ethyl)-phenyl]-pyridin-3-yl}-6-(6-methyl-pyridin-2-yl)-1H-pyrrolo[2,3-b]pyridine] in this work. An IC50 of 7 nM was found for Cc1cccc(-c2cc(-c3cncc(-c4ccc(C(C)(C)NCCO)cc4)c3)c3cc[nH]c3n2)n1 [Example 162, 2-[1-Methyl-1-(4-{5-[6-(6-methyl-pyridin-2-yl)-1H-pyrrolo[2,3-b]pyridin-4-yl]-pyridin-3-yl}-phenyl)-ethylamino]-ethanol] in this work.
